From ChEMBL document CHEMBL5715954, “Silencing c-Myc translation as a therapeutic strategy through targeting PI3Kδ and CK1ε in hematological malignancies” (Blood, 2017) come the findings set out here.

What all share (set-up): scale not given: the % may be the effect or the level left
Test [1] deals with T1, Serine/threonine-protein kinase A-Raf (Homo sapiens) (UniProt P10398).
T1 sequence (whole entry): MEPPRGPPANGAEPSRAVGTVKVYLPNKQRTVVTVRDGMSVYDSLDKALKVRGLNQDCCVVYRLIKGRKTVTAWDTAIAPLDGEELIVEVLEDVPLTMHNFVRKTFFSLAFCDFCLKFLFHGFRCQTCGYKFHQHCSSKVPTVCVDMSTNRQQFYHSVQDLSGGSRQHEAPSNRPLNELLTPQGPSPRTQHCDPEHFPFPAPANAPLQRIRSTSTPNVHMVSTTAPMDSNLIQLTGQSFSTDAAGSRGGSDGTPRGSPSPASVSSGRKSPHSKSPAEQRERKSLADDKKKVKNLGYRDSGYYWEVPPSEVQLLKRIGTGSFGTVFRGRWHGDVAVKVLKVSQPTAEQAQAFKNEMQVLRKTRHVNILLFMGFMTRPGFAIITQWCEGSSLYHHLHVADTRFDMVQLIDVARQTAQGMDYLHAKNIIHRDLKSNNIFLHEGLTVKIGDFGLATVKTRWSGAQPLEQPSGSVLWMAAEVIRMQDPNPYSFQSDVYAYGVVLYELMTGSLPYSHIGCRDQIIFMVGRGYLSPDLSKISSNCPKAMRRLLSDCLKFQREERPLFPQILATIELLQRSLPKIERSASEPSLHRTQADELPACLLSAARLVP
In words: Inhibition of human ARAF assessed as enzyme activity at 1 uM using MEK1 (K97R) as substrate preincubated for 20 mins followed by [gamma-33P]-ATP addition and measured after 120 mins by radiometric Hot-SpotSM Kinase assay relative to control.

In test [2] the target is Calcium/calmodulin-dependent protein kinase type 1G (Homo sapiens) (UniProt Q96NX5). The experiment in a line: Inhibition of human CAMK1g assessed as enzyme activity at 1 uM using KKALRRQETVDAL as substrate preincubated for 20 mins followed by [gamma-33P]-ATP addition and measured after 120 mins by radiometric Hot-SpotSM Kinase assay relative to control.
Test [3] deals with CDK17/Cyclin-Y (Homo sapiens) (UniProt Q00537+Q8ND76). The experiment in a line: Inhibition of human CDK17/cyclin Y assessed as enzyme activity at 1 uM using myelin basic protein as substrate preincubated for 20 mins followed by [gamma-33P]-ATP addition and measured after 120 mins by radiometric Hot-SpotSM Kinase assay relative to control. It counts as protein-complex assay.
Test [4] has as its target Dual specificity protein kinase CLK1 (Homo sapiens) (UniProt P49759). The experiment in a line: Inhibition of human CLK1 assessed as enzyme activity at 1 uM using myelin basic protein as substrate preincubated for 20 mins followed by [gamma-33P]-ATP addition and measured after 120 mins by radiometric Hot-SpotSM Kinase assay relative to control.
Test [5] addresses T2, Rhodopsin kinase GRK7 (Homo sapiens) (UniProt Q8WTQ7).
T2 sequence (whole entry): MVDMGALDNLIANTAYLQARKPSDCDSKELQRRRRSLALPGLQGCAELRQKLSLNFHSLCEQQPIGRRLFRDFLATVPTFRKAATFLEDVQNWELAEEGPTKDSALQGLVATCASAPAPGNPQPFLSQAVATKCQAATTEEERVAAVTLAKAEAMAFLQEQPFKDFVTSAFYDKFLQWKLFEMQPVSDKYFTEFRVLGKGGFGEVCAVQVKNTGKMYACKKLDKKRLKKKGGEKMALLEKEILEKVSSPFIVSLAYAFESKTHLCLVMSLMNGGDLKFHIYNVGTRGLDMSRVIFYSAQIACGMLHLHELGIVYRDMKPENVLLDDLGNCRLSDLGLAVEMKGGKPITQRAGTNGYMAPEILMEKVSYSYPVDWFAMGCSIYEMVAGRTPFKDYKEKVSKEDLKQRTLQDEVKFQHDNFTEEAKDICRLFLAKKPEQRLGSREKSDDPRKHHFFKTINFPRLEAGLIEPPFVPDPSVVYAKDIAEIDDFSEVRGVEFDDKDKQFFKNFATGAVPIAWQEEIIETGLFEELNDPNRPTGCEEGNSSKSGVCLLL
In words: Inhibition of human GRK7 assessed as enzyme activity at 1 uM using casein as substrate preincubated for 20 mins followed by [gamma-33P]-ATP addition and measured after 120 mins by radiometric Hot-SpotSM Kinase assay relative to control.

The target of test [6] is Dual specificity mitogen-activated protein kinase kinase 1 (Homo sapiens) (UniProt Q02750). The experiment in a line: Inhibition of human MEK1 assessed as enzyme activity at 1 uM using ERK2 (K52R) as substrate preincubated for 20 mins followed by [gamma-33P]-ATP addition and measured after 120 mins by radiometric Hot-SpotSM Kinase assay relative to control.
The target in test [7] is Myosin light chain kinase, smooth muscle (Homo sapiens) (UniProt Q15746). The experiment in a line: Inhibition of human MLCK assessed as enzyme activity at 1 uM using KKLNRTLSFAEPG as substrate preincubated for 20 mins followed by [gamma-33P]-ATP addition and measured after 120 mins by radiometric Hot-SpotSM Kinase assay relative to control.
Test [8] has as its target T3, Myosin light chain kinase family member 4 (Homo sapiens) (UniProt Q86YV6).
T3 sequence (whole entry): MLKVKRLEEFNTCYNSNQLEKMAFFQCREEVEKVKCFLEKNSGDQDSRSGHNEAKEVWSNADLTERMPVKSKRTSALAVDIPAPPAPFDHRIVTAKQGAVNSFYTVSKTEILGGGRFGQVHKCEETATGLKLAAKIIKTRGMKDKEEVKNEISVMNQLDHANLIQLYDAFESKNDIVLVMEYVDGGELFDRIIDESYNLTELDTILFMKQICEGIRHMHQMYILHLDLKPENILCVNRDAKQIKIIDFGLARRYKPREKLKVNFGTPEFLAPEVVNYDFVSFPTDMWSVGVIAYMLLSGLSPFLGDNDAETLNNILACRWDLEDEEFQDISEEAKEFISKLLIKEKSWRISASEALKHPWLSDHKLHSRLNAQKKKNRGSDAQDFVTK
In words: Inhibition of human MYLK4 assessed as enzyme activity at 1 uM using KKRPQRRYSNVF as substrate preincubated for 20 mins followed by [gamma-33P]-ATP addition and measured after 120 mins by radiometric Hot-SpotSM Kinase assay relative to control.

The target of test [9] is Protein kinase C beta type (Homo sapiens) (UniProt P05771). In words: Inhibition of human PKCb2 assessed as enzyme activity at 1 uM using ERMRPRKRQGSVRRRV as substrate preincubated for 20 mins followed by [gamma-33P]-ATP addition and measured after 120 mins by radiometric Hot-SpotSM Kinase assay relative to control.
Test [10] has as its target TGF-beta receptor type-2 (Homo sapiens) (UniProt P37173). The experiment in a line: Inhibition of human TGFBR2 assessed as enzyme activity at 1 uM using myelin basic protein as substrate preincubated for 20 mins followed by [gamma-33P]-ATP addition and measured after 120 mins by radiometric Hot-SpotSM Kinase assay relative to control.

Chain of CDK17/Cyclin-Y (Homo sapiens) (Q00537 whole entry): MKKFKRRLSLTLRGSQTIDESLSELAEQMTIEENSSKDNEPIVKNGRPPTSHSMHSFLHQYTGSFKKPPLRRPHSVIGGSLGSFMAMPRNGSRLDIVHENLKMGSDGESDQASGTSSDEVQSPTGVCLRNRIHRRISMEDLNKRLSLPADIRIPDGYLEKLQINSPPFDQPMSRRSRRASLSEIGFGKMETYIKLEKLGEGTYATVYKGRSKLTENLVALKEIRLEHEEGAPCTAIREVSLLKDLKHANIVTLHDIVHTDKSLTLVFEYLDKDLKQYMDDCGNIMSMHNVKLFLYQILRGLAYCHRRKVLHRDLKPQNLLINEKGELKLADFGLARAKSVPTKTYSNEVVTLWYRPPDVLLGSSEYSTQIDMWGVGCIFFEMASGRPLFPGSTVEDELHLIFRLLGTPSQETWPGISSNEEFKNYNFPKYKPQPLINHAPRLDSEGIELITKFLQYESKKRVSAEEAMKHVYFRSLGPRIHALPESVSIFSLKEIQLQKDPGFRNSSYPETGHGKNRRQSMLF
Chain of CDK17/Cyclin-Y (Homo sapiens) (Q8ND76 2-341 partner limits assumed): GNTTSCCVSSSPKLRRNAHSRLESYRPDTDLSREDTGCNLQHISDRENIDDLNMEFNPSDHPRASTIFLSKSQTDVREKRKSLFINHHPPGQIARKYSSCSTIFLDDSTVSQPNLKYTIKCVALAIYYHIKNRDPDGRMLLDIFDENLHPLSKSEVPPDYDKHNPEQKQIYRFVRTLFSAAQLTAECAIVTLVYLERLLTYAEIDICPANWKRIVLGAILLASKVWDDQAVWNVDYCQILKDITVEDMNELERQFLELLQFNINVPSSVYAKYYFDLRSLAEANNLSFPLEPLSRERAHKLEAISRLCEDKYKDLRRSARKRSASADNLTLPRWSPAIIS
Chain of Myosin light chain kinase, smooth muscle (Homo sapiens) (Q15746 whole entry): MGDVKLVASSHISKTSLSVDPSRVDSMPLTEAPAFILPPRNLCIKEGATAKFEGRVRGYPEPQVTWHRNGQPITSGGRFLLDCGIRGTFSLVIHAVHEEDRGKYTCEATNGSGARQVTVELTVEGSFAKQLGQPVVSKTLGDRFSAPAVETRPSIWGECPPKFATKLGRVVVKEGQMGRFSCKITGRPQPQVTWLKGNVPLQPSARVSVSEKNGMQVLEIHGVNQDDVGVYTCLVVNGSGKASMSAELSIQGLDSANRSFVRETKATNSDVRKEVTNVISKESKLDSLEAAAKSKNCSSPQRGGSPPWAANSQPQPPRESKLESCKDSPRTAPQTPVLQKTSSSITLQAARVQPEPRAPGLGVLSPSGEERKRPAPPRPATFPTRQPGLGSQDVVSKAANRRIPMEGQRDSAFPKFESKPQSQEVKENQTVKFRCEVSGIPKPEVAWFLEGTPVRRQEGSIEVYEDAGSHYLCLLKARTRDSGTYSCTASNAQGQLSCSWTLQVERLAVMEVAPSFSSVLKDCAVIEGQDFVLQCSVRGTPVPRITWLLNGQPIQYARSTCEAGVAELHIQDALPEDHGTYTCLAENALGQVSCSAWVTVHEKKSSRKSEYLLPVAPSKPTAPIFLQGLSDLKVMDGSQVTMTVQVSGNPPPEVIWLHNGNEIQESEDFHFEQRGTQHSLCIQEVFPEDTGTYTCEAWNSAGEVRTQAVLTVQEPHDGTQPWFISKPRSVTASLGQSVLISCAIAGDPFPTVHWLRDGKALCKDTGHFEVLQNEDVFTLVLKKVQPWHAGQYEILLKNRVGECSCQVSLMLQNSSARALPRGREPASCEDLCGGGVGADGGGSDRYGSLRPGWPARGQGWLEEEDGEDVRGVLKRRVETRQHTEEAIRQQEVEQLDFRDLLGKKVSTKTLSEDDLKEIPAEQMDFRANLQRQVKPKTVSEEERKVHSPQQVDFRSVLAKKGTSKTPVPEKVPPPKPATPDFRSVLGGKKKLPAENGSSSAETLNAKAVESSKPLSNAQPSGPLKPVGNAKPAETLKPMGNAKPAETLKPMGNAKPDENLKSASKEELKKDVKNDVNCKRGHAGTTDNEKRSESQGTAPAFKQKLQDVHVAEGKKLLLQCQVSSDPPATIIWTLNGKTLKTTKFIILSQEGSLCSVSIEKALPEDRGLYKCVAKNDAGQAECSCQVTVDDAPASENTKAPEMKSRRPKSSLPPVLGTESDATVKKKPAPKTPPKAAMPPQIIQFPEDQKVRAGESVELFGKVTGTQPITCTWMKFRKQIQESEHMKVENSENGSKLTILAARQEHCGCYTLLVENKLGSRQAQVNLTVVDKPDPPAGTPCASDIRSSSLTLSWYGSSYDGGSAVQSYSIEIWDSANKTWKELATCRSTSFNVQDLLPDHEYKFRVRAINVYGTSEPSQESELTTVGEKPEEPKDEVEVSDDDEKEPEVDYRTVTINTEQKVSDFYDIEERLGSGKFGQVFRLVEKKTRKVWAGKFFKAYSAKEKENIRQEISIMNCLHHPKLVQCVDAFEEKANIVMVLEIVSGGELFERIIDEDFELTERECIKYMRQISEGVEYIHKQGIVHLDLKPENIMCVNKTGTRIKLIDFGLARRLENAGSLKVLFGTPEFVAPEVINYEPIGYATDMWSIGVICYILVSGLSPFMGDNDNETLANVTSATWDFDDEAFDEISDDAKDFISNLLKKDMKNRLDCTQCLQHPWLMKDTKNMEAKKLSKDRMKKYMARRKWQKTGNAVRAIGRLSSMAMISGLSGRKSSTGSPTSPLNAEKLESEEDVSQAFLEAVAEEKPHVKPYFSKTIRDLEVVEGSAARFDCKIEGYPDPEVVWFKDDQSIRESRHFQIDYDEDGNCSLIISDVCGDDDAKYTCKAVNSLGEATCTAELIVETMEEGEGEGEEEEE
Chain of Dual specificity protein kinase CLK1 (Homo sapiens) (P49759 whole entry, looked up): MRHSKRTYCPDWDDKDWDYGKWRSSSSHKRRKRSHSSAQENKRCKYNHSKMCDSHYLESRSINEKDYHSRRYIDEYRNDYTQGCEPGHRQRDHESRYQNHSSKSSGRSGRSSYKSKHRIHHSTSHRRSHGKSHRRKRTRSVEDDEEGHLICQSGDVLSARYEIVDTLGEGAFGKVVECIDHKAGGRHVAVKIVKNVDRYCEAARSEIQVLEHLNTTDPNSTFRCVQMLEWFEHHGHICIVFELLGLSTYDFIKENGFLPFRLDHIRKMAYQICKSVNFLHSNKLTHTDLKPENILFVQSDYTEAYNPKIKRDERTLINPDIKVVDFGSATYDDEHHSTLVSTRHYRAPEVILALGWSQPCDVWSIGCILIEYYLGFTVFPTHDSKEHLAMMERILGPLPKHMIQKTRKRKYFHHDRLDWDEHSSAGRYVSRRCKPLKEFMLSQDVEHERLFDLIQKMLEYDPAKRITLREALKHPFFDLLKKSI
Chain of TGF-beta receptor type-2 (Homo sapiens) (P37173 whole entry): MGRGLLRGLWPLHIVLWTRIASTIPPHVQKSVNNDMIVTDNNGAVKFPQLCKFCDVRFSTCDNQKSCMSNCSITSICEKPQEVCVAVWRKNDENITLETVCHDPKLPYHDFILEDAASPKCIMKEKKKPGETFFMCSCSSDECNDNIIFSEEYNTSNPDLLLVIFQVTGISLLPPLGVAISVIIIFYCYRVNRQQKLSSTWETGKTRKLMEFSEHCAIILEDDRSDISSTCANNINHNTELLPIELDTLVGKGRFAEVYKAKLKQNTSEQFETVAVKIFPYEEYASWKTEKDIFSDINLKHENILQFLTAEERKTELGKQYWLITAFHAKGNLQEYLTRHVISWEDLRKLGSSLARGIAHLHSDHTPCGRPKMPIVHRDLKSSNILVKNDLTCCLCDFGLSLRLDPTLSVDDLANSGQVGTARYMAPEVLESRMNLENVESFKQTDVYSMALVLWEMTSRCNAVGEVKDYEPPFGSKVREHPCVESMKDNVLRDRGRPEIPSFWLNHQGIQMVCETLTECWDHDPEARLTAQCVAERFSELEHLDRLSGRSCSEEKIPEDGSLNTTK
Chain of Protein kinase C beta type (Homo sapiens) (P05771 2-671 limits assumed): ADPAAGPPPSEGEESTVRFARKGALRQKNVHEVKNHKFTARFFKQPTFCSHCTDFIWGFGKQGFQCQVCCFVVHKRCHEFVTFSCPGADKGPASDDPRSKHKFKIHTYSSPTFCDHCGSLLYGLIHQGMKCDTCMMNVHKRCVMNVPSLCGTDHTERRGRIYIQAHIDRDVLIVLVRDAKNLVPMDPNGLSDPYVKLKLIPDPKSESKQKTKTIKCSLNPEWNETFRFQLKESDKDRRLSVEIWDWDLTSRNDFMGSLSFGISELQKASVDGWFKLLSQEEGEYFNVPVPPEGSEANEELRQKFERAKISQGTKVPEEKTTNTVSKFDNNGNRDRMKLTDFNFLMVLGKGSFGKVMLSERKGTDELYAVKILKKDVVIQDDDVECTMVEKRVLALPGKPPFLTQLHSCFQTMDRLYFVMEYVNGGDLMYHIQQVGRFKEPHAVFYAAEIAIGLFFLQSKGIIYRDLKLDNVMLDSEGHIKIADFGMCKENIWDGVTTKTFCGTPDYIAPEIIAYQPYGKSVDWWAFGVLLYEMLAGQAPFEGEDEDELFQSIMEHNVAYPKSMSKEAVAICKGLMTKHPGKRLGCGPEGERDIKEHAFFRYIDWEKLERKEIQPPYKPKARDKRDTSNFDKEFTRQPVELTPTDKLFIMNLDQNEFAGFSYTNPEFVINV
Chain of Calcium/calmodulin-dependent protein kinase type 1G (Homo sapiens) (Q96NX5 whole entry): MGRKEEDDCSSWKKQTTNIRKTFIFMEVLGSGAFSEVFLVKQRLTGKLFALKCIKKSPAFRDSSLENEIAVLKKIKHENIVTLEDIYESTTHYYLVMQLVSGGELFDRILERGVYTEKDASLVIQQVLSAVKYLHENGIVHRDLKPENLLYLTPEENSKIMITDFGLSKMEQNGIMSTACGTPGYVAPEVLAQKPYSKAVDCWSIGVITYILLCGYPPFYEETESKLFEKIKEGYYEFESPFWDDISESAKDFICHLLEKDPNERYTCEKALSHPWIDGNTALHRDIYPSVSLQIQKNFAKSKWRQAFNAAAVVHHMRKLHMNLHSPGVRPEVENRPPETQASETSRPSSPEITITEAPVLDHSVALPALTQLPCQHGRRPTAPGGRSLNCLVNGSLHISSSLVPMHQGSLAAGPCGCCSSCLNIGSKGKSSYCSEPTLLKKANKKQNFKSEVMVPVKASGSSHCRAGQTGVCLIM

As for `C[C@H](Nc1ncnc2nc[nH]c12)c1cc2cccc(Cl)c2c(=O)n1-c1ccccc1`, the Activity stood at 86.4% in [1]; 99.1% in [2]; 97.2% in test [3]; 106% in test [4]; 101% in [5]; 97.2% in [6]. Further, the Activity was 91.7% in test [7], 93% in test [8], 93.9% in test [9] and 114% in [10].
With `CC[C@H](Nc1ncnc2[nH]cnc12)c1nc2cccc(F)c2c(=O)n1-c1ccccc1`, the Activity in test [1] turned out to be 92.3%; in test [2] it was 102%; in test [3], 96.5%; in test [4], 97.3%; in [5], 95%; in test [6], 100%. The Activity in [7] turned out to be 96.1%; in [8], 90.9%; in test [9], 91%; in test [10] it was 110%.
Turning to `CC(C)Oc1ccc(-c2nn([C@@H](C)c3oc4ccc(F)cc4c(=O)c3-c3cccc(F)c3)c3ncnc(N)c23)cc1F` [UMBRALISIB], the Activity was 84.4% in [1]; 98.9% in test [2]; 100% in test [3]; 103% in test [4]; 100% in test [5]; 94.4% in [6]. In addition, the Activity in test [7] was determined as 92.4%; in test [8], 92.3%; in test [9] it was 91.3%; in test [10], 97.4%.
